Consider 2 compounds from patent US9485988B2, “Turfgrass fungicide formulation with pigment” (Suncor Energy Inc., priority 2008, dated 2016).

Holding throughout (assay type): in vivo
For one test, the system named is tropical sod webworms. The test is described as follows: Example 29: survival of tropical sod webworm larvae. How it is done: (§1) • 1) Larvae were obtained from Benzon Research Inc. • 2) 5 larvae/container and 3 containers=1 replication • 3) Treatments=1) Control • 2) 2-pack formulation at 5% dilution • 3) Cyfluthrin (insecticide), Al=0.75%, 3 fl oz/gal H2O (22 mL/L) • 4) Container=760 ml plastic bowl with lid containing moist filter paper on bottom and grass clippings • 5) St. Augustinegrass clippings dipped into respective fungicide treatment, drained to dry and put into container • 6) Hold 4 days at 25° C. and measure survival • 7) 7 replications of small larvae (2-10 mm) tested • 8) 6 replications of medium larvae (11-20 mm) tested • 9) 6 replications of large larvae (21-30 mm) tested • 10) Statistical analysis=Least Significant Difference (LSD) test Results:
Similar testing was conducted to determine the efficacy of embodiments of the 2-pack formulation to kill all sizes larvae (small, medium and large) of tropical sod webworms.

The subject of test [1] is fall armyworms (Spodoptera frugiperda). The test is described as follows: Example 29: survival of fall armyworm larvae on treated grass clippings. The settings on record: 5 larvae/container, 4 days at 25° C. As to the method:
The efficacy of an embodiment of the 2-pack formulation against different larval stages of fall armyworms (Spodoptera frugiperda) was determined under laboratory conditions. Embodiments of the invention were compared to a conventional pesticide Cyfluthrin.
as §1, with “Results: […]” for “Results:”

Test [2] is described as follows: Synergy of the formulations when mixed with conventional chemical fungicides. The settings on record: contact fungicide.

As to `CC1(C)C(C=C(Cl)Cl)C1C(=O)OC(C#N)c1ccc(F)c(Oc2ccccc2)c1` (stereo not shown) [Cyfluthrin], the “Mean survival, Large larvae” value in the test on tropical sod webworms (Large sod webworm larvae) is 0.3 B; in test [1] (large larvae (21-30 mm)), 0 B. Besides, the “Mean survival, Medium larvae” value (with tropical sod webworms (Medium sod webworm larvae); in test [1] (medium larvae (11-20 mm))) was 0 B each time. The “Mean survival, Small larvae” value (with tropical sod webworms (Small sod webworm larvae); in test [1] (small larvae (2-10 mm))) was 0 B each time.
Turning to `N#Cc1c(Cl)c(Cl)c(Cl)c(C#N)c1Cl` [chlorothalonil], the “synergistic effect when mixed with embodiments of the invention” value in test [2] was “synergistic effect was not observed”.
